Measured values published in paper PMC2866172 (Journal of medicinal chemistry, 2010).
Read-outs that look alike come from different tables or passages of the source.

Key:
[1] = PPB determination in pooled baboon plasma; conditions: monkey, pooled plasma
[2] = about 3 h after i.v. administration of 108.7 mg INH, [14C]INH tracer; cited from earlier work
[3] = mice, [14C]INH, 10 mg/kg s.c., cited from earlier work
[4] = humans, cited from earlier work
in vitro = conditions: monkey, plasma
[5] = monkeys, 6 h after i.v. administration of [14C]RIF; cited from earlier work
[6] = patients, 150 mg oral dose, cited from earlier work

Structure (SMILES): NNC(=O)c1ccncc1 [INH, isoniazid]
- fraction unbound at 10 min [1]: 0.946
- INH concentration in surgically removed normal human lung [2]: 1.79 µg/g
- INH concentration in brain ([3]; 30 min): 4.4 µg/g
- INH concentration in brain ([3]; 60 min): 3.2 µg/g
- INH CSF concentration ([4]; 8.5 mg/kg oral dose, 2 h): 1.9 µg/mL
- INH CSF concentration ([4]; 108.7 mg oral dose, 1 h): 0.31 µg/mL

Structure (SMILES): CO[C@H]1/C=C/O[C@@]2(C)Oc3c(C)c(O)c4c(O)c(c(/C=N/N5CCN(C)CC5)c(O)c4c3C2=O)NC(=O)/C(C)=C\C=C\[C@H](C)[C@H](O)[C@@H](C)[C@@H](O)[C@@H](C)[C@H](OC(C)=O)[C@@H]1C [RIF, rifampicin]
- fraction unbound at 10 min (in vitro): 0.273
- RIF concentration in heart [5]: 10.11 µg/g
- RIF concentration in kidney [5]: 14.69 µg/g
- RIF concentration in liver [5]: 60.41 µg/g
- RIF concentration in lung [5]: 8.32 µg/g
- RIF bile concentration ([6]; 3–5 h): up to 538.5 µg/ml
- RIF concentration in the liver [6]: 22 to 35 µg/mL
